Results as given in ChEMBL document CHEMBL1201862, “PubChem BioAssay data set” (2004).
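Step 1: Grow cells in 96-well plates. Step 2: Expose to compound for 48 hours at 5 concentrations. Step 3: Interpolate endpoints linearly; if unreached, use highest concentration. Abbreviation: GI50, concentration required for 50% inhibition of growth.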 Active and inactive are the calls of the source. Cut-off read from the data, not from the text of the source: active = GI50 up to about 1.1 µM and inactive = higher.

Experiments:
Test in all cases: NCI tumour cell line growth inhibition, 48 h
HCT-116 = tested on: HCT-116
SW-620 = tested on: SW-620
OVCAR-5 = tested on: OVCAR-5
ACHN = tested on: ACHN
EKVX = tested on: EKVX
SNB-75 = tested on: SNB-75
SR = tested on: SR
UACC-257 = tested on: UACC-257
NCI-H226 = tested on: NCI-H226
OVCAR-4 = tested on: OVCAR-4
CCRF-CEM = tested on: CCRF-CEM
NCI-H522 = tested on: NCI-H522
COLO 205 = tested on: COLO 205
HL-60 = tested on: HL-60
TK-10 = tested on: TK-10
M19-MEL = tested on: M19-MEL
KM12 = tested on: KM12
MDA-N = tested on: MDA-N
MDA-MB-231 = tested on: MDA-MB-231
DU-145 = tested on: DU-145

In the case of `CCOC(=O)C1(Br)S(=O)(=O)OCCOS1(=O)=O`, the GI50 (HCT-116) was > 100 µM (inactive), the GI50 (SW-620) was > 100 µM (inactive) and the GI50 (OVCAR-5) was > 100 µM (inactive). For the same compound, the GI50 (ACHN) was > 100 µM (inactive), the GI50 (EKVX) was > 100 µM (inactive) and the GI50 (SNB-75) was > 100 µM (inactive). The GI50 (SR) was > 100 µM (inactive), the GI50 (UACC-257) was > 100 µM (inactive) and the GI50 (NCI-H226) was > 100 µM (inactive). For the same compound, the GI50 (OVCAR-4) was > 100 µM (inactive), the GI50 (CCRF-CEM) was > 100 µM (inactive) and the GI50 (NCI-H522) was > 100 µM (inactive). For the same compound, the GI50 (COLO 205) was > 100 µM (inactive), the GI50 (HL-60) was > 100 µM (inactive) and the GI50 (TK-10) was > 100 µM (inactive). The GI50 (M19-MEL) was > 100 µM (inactive).
With `CCOC(=O)C1=C(Nc2ccc(Cl)cc2Cl)OCC1=O` the GI50 (HCT-116) was > 100 µM (inactive), the GI50 (SW-620) was > 100 µM (inactive) and the GI50 (OVCAR-5) was > 100 µM (inactive). The GI50 (ACHN) was > 100 µM (inactive), the GI50 (SNB-75) was > 100 µM (inactive) and the GI50 (SR) was > 100 µM (inactive). The GI50 (UACC-257) was > 100 µM (inactive), the GI50 (NCI-H226) was > 100 µM (inactive) and the GI50 (OVCAR-4) was > 100 µM (inactive). The GI50 (KM12) was > 100 µM (inactive), the GI50 (NCI-H522) was > 100 µM (inactive) and the GI50 (COLO 205) was > 100 µM (inactive). The GI50 (HL-60) was > 100 µM (inactive), the GI50 (TK-10) was > 100 µM (inactive) and the GI50 (M19-MEL) was > 100 µM (inactive).
In the case of `Nc1ncc2c(n1)-c1ccccc1OC2NC1CC1` (stereo unspecified), the GI50 (HCT-116) was > 100 µM (inactive), the GI50 (MDA-N) was > 100 µM (inactive) and the GI50 (SW-620) was > 100 µM (inactive). For the same compound, the GI50 (OVCAR-5) was > 100 µM (inactive), the GI50 (MDA-MB-231) was > 100 µM (inactive) and the GI50 (ACHN) was > 100 µM (inactive). For the same compound, the GI50 (EKVX) was 97.5 µM (inactive), the GI50 (SNB-75) was > 100 µM (inactive) and the GI50 (SR) was > 100 µM (inactive). The GI50 (DU-145) was > 100 µM (inactive), the GI50 (UACC-257) was > 100 µM (inactive) and the GI50 (NCI-H226) was > 100 µM (inactive). For the same compound, the GI50 (OVCAR-4) was > 100 µM (inactive), the GI50 (KM12) was > 100 µM (inactive) and the GI50 (CCRF-CEM) was > 100 µM (inactive). For the same compound, the GI50 (NCI-H522) was > 100 µM (inactive), the GI50 (COLO 205) was > 100 µM (inactive) and the GI50 (HL-60) was > 100 µM (inactive). The GI50 (TK-10) was > 100 µM (inactive).
`COc1ccc2cc1Oc1ccc(cc1)CC1c3cc(OC)c(cc3CCN1C)Oc1c(OC)c(OC)cc3c1C(C2)N(C)CC3` (stereo unspecified) was tested, and the GI50 (HCT-116) was 19.1 µM (inactive), the GI50 (MDA-N) was 10.5 µM (inactive) and the GI50 (SW-620) was 26.2 µM (inactive). For the same compound, the GI50 (OVCAR-5) was 34.2 µM (inactive), the GI50 (MDA-MB-231) was 10 µM (inactive) and the GI50 (ACHN) was 9.57 µM (inactive). For the same compound, the GI50 (EKVX) was 12.2 µM (inactive), the GI50 (SNB-75) was 8.63 µM (inactive) and the GI50 (SR) was 1.17 µM (inactive). For the same compound, the GI50 (DU-145) was 12.6 µM (inactive), the GI50 (UACC-257) was 6.75 µM (inactive) and the GI50 (NCI-H226) was 16.9 µM (inactive). For the same compound, the GI50 (OVCAR-4) was 10.6 µM (inactive), the GI50 (KM12) was 12.7 µM (inactive) and the GI50 (CCRF-CEM) was 17.7 µM (inactive). The GI50 (NCI-H522) was 9.89 µM (inactive), the GI50 (COLO 205) was 2.49 µM (inactive) and the GI50 (HL-60) was 4.71 µM (inactive). For the same compound, the GI50 (TK-10) was 10.8 µM (inactive).
In the case of `CC1=CCC[C@]2(C)C1=CC(=O)O[C@H]2c1ccoc1`, the GI50 (HCT-116) was > 100 µM (inactive), the GI50 (MDA-N) was > 100 µM (inactive) and the GI50 (SW-620) was > 100 µM (inactive). The GI50 (OVCAR-5) was > 100 µM (inactive), the GI50 (MDA-MB-231) was > 100 µM (inactive) and the GI50 (ACHN) was > 100 µM (inactive). For the same compound, the GI50 (EKVX) was > 100 µM (inactive), the GI50 (SNB-75) was > 100 µM (inactive) and the GI50 (SR) was > 100 µM (inactive). The GI50 (DU-145) was > 100 µM (inactive), the GI50 (UACC-257) was > 100 µM (inactive) and the GI50 (NCI-H226) was > 100 µM (inactive). For the same compound, the GI50 (OVCAR-4) was > 100 µM (inactive), the GI50 (KM12) was > 100 µM (inactive) and the GI50 (CCRF-CEM) was > 100 µM (inactive). The GI50 (NCI-H522) was > 100 µM (inactive), the GI50 (COLO 205) was > 100 µM (inactive) and the GI50 (HL-60) was 49.8 µM (inactive). For the same compound, the GI50 (TK-10) was > 100 µM (inactive).
With `CCN(CC)COC(=S)S` the GI50 (HCT-116) was 40.4 µM (inactive), the GI50 (MDA-N) was > 63.2 µM (inactive) and the GI50 (SW-620) was 24.2 µM (inactive). For the same compound, the GI50 (OVCAR-5) was > 100 µM (inactive), the GI50 (MDA-MB-231) was 35.4 µM (inactive) and the GI50 (ACHN) was > 100 µM (inactive). For the same compound, the GI50 (EKVX) was > 100 µM (inactive), the GI50 (SNB-75) was 30.5 µM (inactive) and the GI50 (SR) was 0.233 µM (active). For the same compound, the GI50 (DU-145) was 54.6 µM (inactive), the GI50 (UACC-257) was 27.5 µM (inactive) and the GI50 (NCI-H226) was > 100 µM (inactive). For the same compound, the GI50 (OVCAR-4) was 48.8 µM (inactive), the GI50 (KM12) was > 76.2 µM (inactive) and the GI50 (CCRF-CEM) was 0.0162 µM (active). The GI50 (NCI-H522) was 3.61 µM (inactive), the GI50 (COLO 205) was 78 µM (inactive) and the GI50 (HL-60) was < 0.01 µM (active). The GI50 (TK-10) was > 54 µM (inactive).
In the case of `CC1CCCC2(O1)OC1CC(=O)OC1C1=C2C(=O)c2ccccc2C1=O` (stereo unspecified), the GI50 (SW-620) was 1.67 µM (inactive), the GI50 (OVCAR-5) was 19.9 µM (inactive) and the GI50 (ACHN) was 4.39 µM (inactive). For the same compound, the GI50 (EKVX) was 3.87 µM (inactive), the GI50 (SNB-75) was 11.2 µM (inactive) and the GI50 (UACC-257) was 1.81 µM (inactive). For the same compound, the GI50 (NCI-H226) was 1.3 µM (inactive), the GI50 (OVCAR-4) was 1.86 µM (inactive) and the GI50 (KM12) was 12.1 µM (inactive). The GI50 (CCRF-CEM) was 1.57 µM (inactive), the GI50 (NCI-H522) was 1.6 µM (inactive) and the GI50 (COLO 205) was 2.02 µM (inactive). For the same compound, the GI50 (HL-60) was 1.39 µM (inactive), the GI50 (TK-10) was 9.12 µM (inactive) and the GI50 (M19-MEL) was 2.72 µM (inactive).
With `CC(=O)OC(C)c1cc2c(s1)C(=O)c1ccsc1C2=O` (stereo unspecified) the GI50 (HCT-116) was 0.226 µM (active), the GI50 (MDA-N) was 0.0206 µM (active) and the GI50 (SW-620) was 0.324 µM (active). For the same compound, the GI50 (OVCAR-5) was 0.458 µM (active), the GI50 (MDA-MB-231) was 0.209 µM (active) and the GI50 (ACHN) was 0.158 µM (active). For the same compound, the GI50 (EKVX) was 0.773 µM (active), the GI50 (SNB-75) was 0.148 µM (active) and the GI50 (SR) was 0.0748 µM (active). The GI50 (DU-145) was 0.118 µM (active), the GI50 (UACC-257) was 0.028 µM (active) and the GI50 (NCI-H226) was 1.61 µM (inactive). The GI50 (OVCAR-4) was 0.664 µM (active), the GI50 (KM12) was 0.169 µM (active) and the GI50 (CCRF-CEM) was 0.204 µM (active). For the same compound, the GI50 (NCI-H522) was 0.149 µM (active), the GI50 (COLO 205) was 0.776 µM (active) and the GI50 (HL-60) was 0.0122 µM (active). The GI50 (TK-10) was 1.22 µM (inactive).
